Reference: patent US20220073536A1 (Rigel Pharmaceuticals, Inc., priority 2003, published 2022)

Key:
[1] = system: cultured human mast cells (CHMC); assay: CHMC low cell density ionomycin activation: tryptase assay; assay type: cell-based; settings: low cell density CHMC, 3 pt, read-out: LD Tryptase, CHMC, Iono, 3 pt
[2] = system: cultured human mast cells (CHMC); assay: CHMC low cell density IgE activation: tryptase assay; assay type: cell-based; settings: low cell density CHMC, IgE activation
Method in brief: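 Tryptase release was read from supernatant with a fluorogenic substrate (30 min, room temperature) after anti-IgE challenge of cultured human mast cells (1000–1500 cells/well, low density) for 30 minutes at 37° C.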

[3] = Homo sapiens, Mast cell, tryptase readout
[4] = Homo sapiens, Mast cell, tryptase readout, 3 pt, read-out: LD Tryptase, CHMC, IgE, 3 pt
[5] = Homo sapiens, Mast cell, tryptase readout, 8 pt, read-out: LD Tryptase, CHMC, IgE, 8 pt
[6] = tryptase readout, 3 pt, read-out: LD Tryptase, CHMC, IgE, 3 pt
[7] = Homo sapiens, Mast cell, tryptase
[8] = Homo sapiens, Mast cell, tryptase, 3 pt, read-out: LD Tryptase, CHMC, IgE, 3 pt
[9] = Homo sapiens, Mast cell, tryptase, 8 pt, read-out: LD Tryptase, CHMC, IgE, 8 pt

Compound | IC50 [1, 3] | IC50 [2, 4] | further results
COc1cc(Nc2ncc(F)c(NC3CCC3)n2)cc(C(F)(F)F)c1 [Compound 1089, N4-Cyclobutyl-5-fluoro-N2-(3-methoxy-5-trifluoromethylphenyl)-2,4-pyrimidinediamine] | > 10 µM | < 10 µM | IC50 [2, 5]: < 10 µM
CC(C)(C)c1cc(Nc2nc(Nc3cccc(N4CCOCC4)c3)ncc2F)n[nH]1 [Compound 1090] | > 10 µM | < 10 µM | IC50 [2, 5]: < 10 µM
CC(=O)N1CCN(c2cccc(Nc3ncc(F)c(Nc4cc(C(C)(C)C)[nH]n4)n3)c2)CC1 [Compound 1091, N2-[3-(4-Acetylpiperazino)phenyl]-N4-(5-tert-butyl-1H-pyrazol-3-yl)-5-fluoro-2,4-pyrimidinediamine] | > 10 µM | < 10 µM | IC50 [2, 5]: < 10 µM
C[C@@H]1Oc2ccc(Nc3nc(Nc4cc(C(C)(C)C)[nH]n4)ncc3F)nc2NC1=O [Compound 1092, (S)-N2-(5-tert-Butyl-1H-pyrazol-3-yl)-5-fluoro-N4-(2-methyl-3-oxo-2H,4H-5-pyrid[1,4]oxazin-6-yl)-2,4-pyrimidinediamine] | – | – | IC50 ([1]; tryptase readout): > 10 µM; IC50 [2, 6]: < 10 µM; IC50 ([2]; tryptase readout, 8 pt, read-out: LD Tryptase, CHMC, IgE, 8 pt): < 10 µM
COc1ccc(Nc2ncc(F)c(Nc3cccc(NC4=NCCN4)c3)n2)cc1F [Compound 1094, 5-Fluoro-N2-(3-fluoro-4-methoxyphenyl)-N4-[3-(N-2-imidazolin-2-yl)aminophenyl]-2,4-pyrimidinediamine] | > 10 µM | < 10 µM | –
Cc1cc(C)cc(Nc2ncc(F)c(Nc3cccc(NC4=NCCN4)c3)n2)c1 [Compound 1095, N2-(3,5-Dimethylphenyl)-5-fluoro-N4-[3-(N-2-imidazolin-2-yl)aminophenyl]-2,4-pyrimidinediamine] | > 10 µM | < 10 µM | –
COc1cc(Nc2ncc(F)c(Nc3cccc(NC4=NCCN4)c3)n2)cc(OC)c1 [Compound 1096, N2-(3,5-Dimethoxyphenyl)-5-fluoro-N4-[3-(N-2-imidazolin-2-yl)aminophenyl]-2,4-pyrimidinediamine] | > 10 µM | < 10 µM | IC50 [2, 5]: > 10 µM
Fc1cnc(Nc2cccc(N3CCOCC3)c2)nc1Nc1cccc(NC2=NCCN2)c1 [Compound 1097, 5-Fluoro-N4-[3-(N-2-imidazolin-2-yl)aminophenyl]-N2-(3-morpholinophenyl)-2,4-pyrimidinediamine] | > 10 µM | > 10 µM | –
CCOC(=O)N1CCN(c2cccc(Nc3ncc(F)c(Nc4cccc(NC5=NCCN5)c4)n3)c2)CC1 [Compound 1098, N2-[3-(4-Ethoxycarbonylpiperazino)phenyl]-5-fluoro-N4-[3-(N-2-imidazolin-2-yl)aminophenyl]-2,4-pyrimidinediamine] | > 10 µM | > 10 µM | –
CN1CCN(c2ccc(Nc3ncc(F)c(Nc4cccc(NC5=NCCN5)c4)n3)cc2)CC1 [Compound 1099, 5-Fluoro-N4-[3-(N-2-imidazolin-2-yl)aminophenyl]-N2-[4-(4-methylpiperazino)phenyl]-2,4-pyrimidinediamine] | > 10 µM | > 10 µM | –
COC(=O)N1CCN(c2ccc(Nc3ncc(F)c(Nc4cccc(NC5=NCCN5)c4)n3)cc2)CC1 [Compound 1100, 5-Fluoro-N4-[3-(N-2-imidazolin-2-yl)aminophenyl]-N2-[4-(4-methoxycarbonylpiperazino)phenyl]-2,4-pyrimidinediamine] | > 10 µM | > 10 µM | –
CCOC(=O)N1CCN(c2cccc(Nc3ncc(F)c(Nc4cc(C(C)(C)C)[nH]n4)n3)c2)CC1 [Compound 1101, N4-(5-tert-Butyl-1H-pyrazol-3-yl)-N2-[3-(4-ethoxycarbonylpiperazino)phenyl]-5-fluoro-2,4-pyrimidinediamine] | > 10 µM | < 10 µM | –
CC(=O)N1CCN(c2ccc(Nc3ncc(F)c(Nc4cc(C(C)(C)C)[nH]n4)n3)cc2)CC1 [Compound 1102] | > 10 µM | < 10 µM | IC50 [2, 5]: < 10 µM
COC(=O)N1CCN(c2ccc(Nc3ncc(F)c(Nc4cc(C(C)(C)C)[nH]n4)n3)cc2)CC1 [Compound 1103] | > 10 µM | < 10 µM | IC50 [2, 5]: < 10 µM
CN1CCN(c2ccc(Nc3ncc(F)c(Nc4cc(C(C)(C)C)[nH]n4)n3)cc2)CC1 [Compound 1104] | > 10 µM | < 10 µM | IC50 [2, 5]: < 10 µM
CC(=O)N1CCN(c2ccc(Nc3ncc(F)c(Nc4cccc(NC5=NCCN5)c4)n3)cc2)CC1 [Compound 1105, N2-[4-(4-Acetylpiperazino)phenyl]-5-fluoro-N4-[3-(N-2-imidazolin-2-yl)aminophenyl]-2,4-pyrimidinediamine] | > 10 µM | > 10 µM | –
CC(=O)N1CCN(c2cccc(Nc3ncc(F)c(Nc4cccc(NC5=NCCN5)c4)n3)c2)CC1 [Compound 1106] | > 10 µM | > 10 µM | –
CCOC(=O)c1cc2cccc(Nc3ncc(F)c(NC4CCC4)n3)c2[nH]1 [Compound 1107, N4-Cyclobutyl-N2-[2-(ethoxycarbonyl)indol-7-yl]-5-fluoro-2,4-pyrimidinediamine] | < 10 µM | < 10 µM | –
Fc1cnc(Nc2cccc(N3CCOCC3)c2)nc1NC1CCC1 [Compound 1108, N4-Cyclobutyl-5-fluoro-N2-(3-morpholinophenyl)-2,4-pyrimidinediamine] | > 10 µM | < 10 µM | IC50 [2, 5]: < 10 µM
CCOC(=O)N1CCN(c2cccc(Nc3ncc(F)c(NC4CCC4)n3)c2)CC1 [Compound 1109, N4-Cyclobutyl-N2-[3-(4-ethoxycarbonylpiperazino)pheny]-5-fluoro-2,4-pyrimidinediamine] | – | – | IC50 ([1]; tryptase readout): > 10 µM; IC50 [2, 6]: < 10 µM
CN1CCN(c2ccc(Nc3ncc(F)c(NC4CCC4)n3)cc2)CC1 [Compound 1110, N4-Cyclobutyl-5-fluoro-N2-[4-(4-methylpiperazino)phenyl]-2,4-pyrimidinediamine] | > 10 µM | < 10 µM | –
CCOC(=O)N1CCN(c2ccc(Nc3ncc(F)c(NC4CCC4)n3)cc2)CC1 [Compound 1111, N4-Cyclobutyl-N2-[4-(4-ethoxycarbonylpiperazino)phenyl]-5-fluoro-2,4-pyrimidinediamine] | – | – | IC50 [1, 7]: > 10 µM; IC50 [2, 8]: < 10 µM
CC(=O)N1CCN(c2cccc(Nc3ncc(F)c(Nc4cc(C5CC5)n[nH]4)n3)c2)CC1 [Compound 1112] | – | – | IC50 [1, 7]: < 10 µM; IC50 [2, 8]: < 10 µM; IC50 [2, 9]: < 10 µM
CN1CCN(c2ccc(Nc3ncc(F)c(Nc4cc(C5CC5)n[nH]4)n3)cc2)CC1 [Compound 1113, N4-(3-Cyclopropyl-1H-pyrazol-5-yl)-5-fluoro-N2-[4-(4-methylpiperazino)phenyl]-2,4-pyrimidinediamine] | – | – | IC50 [1, 7]: > 10 µM; IC50 [2, 8]: < 10 µM; IC50 [2, 9]: < 10 µM
Fc1cnc(Nc2cccc(N3CCOCC3)c2)nc1Nc1cc(C2CC2)n[nH]1 [Compound 1114] | – | – | IC50 [1, 7]: > 10 µM; IC50 [2, 8]: < 10 µM; IC50 [2, 9]: < 10 µM
CCOC(=O)N1CCN(c2cccc(Nc3ncc(F)c(Nc4cc(C5CC5)n[nH]4)n3)c2)CC1 [Compound 1115] | – | – | IC50 [1, 7]: < 10 µM; IC50 [2, 8]: < 10 µM
CCOC(=O)N1CCN(c2ccc(Nc3ncc(F)c(Nc4cc(C5CC5)n[nH]4)n3)cc2)CC1 [Compound 1116, N4-(3-Cyclopropyl-1H-pyrazol-5-yl)-N2-[4-(4-ethoxycarbonylpiperazino)phenyl]-5-fluoro-2,4-pyrimidinediamine] | – | – | IC50 [1, 7]: < 10 µM; IC50 [2, 8]: < 10 µM
